The test system of this test is P388 leukemia ip, CD2F1 mice, survival T/C. As to the kind of experiment: NCI In Vivo Anticancer Drug Screen. Data for tumor model P388 Leukemia (intraperitoneal) in CD2F1 (CDF1) mice. Particulars: endpoint: median survival time, higher = longer survival. The gist of the method:
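Mice carrying the transplanted tumor received test compound or vehicle. Survival was recorded in each group, and the value is the treated-group measurement divided by that of the vehicle-treated control group.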

[1] abbreviates: dose: 12.5 mg/kg/injection, schedule: Q01DX009 (ip), vehicle: other.
[2] abbreviates: dose: 25.0 mg/kg/injection, schedule: Q01DX009 (ip), vehicle: other.
Where [3] appears, read: dose: 50.0 mg/kg/injection, schedule: Q01DX009 (ip), vehicle: other.
Setting [4] is: dose: 100.0 mg/kg/injection, schedule: Q01DX009 (ip), vehicle: other.
Setting [5] is: dose: 100.0 mg/kg/injection, schedule: Q04DX003 (ip), vehicle: saline with Tween-80.
Where [6] appears, read: dose: 200.0 mg/kg/injection, schedule: Q04DX003 (ip), vehicle: saline with Tween-80.
Setting [7] is: dose: 400.0 mg/kg/injection, schedule: Q04DX003 (ip), vehicle: saline with Tween-80.
[8] abbreviates: dose: 50.0 mg/kg/injection, schedule: Q01DX005 (ip), vehicle: Klucel (hydroxypropylcellulose) (HPC).
The mark [9] stands for this setting: dose: 100.0 mg/kg/injection, schedule: Q01DX005 (ip), vehicle: Klucel (hydroxypropylcellulose) (HPC).
[10] abbreviates: dose: 50.0 mg/kg/injection, schedule: Q01DX009 (ip), vehicle: saline.
[11] abbreviates: dose: 100.0 mg/kg/injection, schedule: Q01DX009 (ip), vehicle: saline.
Setting [12] is: dose: 200.0 mg/kg/injection, schedule: Q01DX009 (ip), vehicle: saline.
Setting [13] is: dose: 60.0 mg/kg/injection, schedule: Q01DX005 (ip), vehicle: saline.
[14] abbreviates: dose: 120.0 mg/kg/injection, schedule: Q01DX005 (ip), vehicle: saline.
Where [15] appears, read: dose: 240.0 mg/kg/injection, schedule: Q01DX005 (ip), vehicle: saline.
The mark [16] stands for this setting: dose: 50.0 mg/kg/injection, schedule: Q01DX005 (ip), vehicle: saline with Tween-80.
[17] abbreviates: dose: 100.0 mg/kg/injection, schedule: Q01DX005 (ip), vehicle: saline with Tween-80.
Setting [18] is: dose: 200.0 mg/kg/injection, schedule: Q01DX005 (ip), vehicle: saline with Tween-80.
The mark [19] stands for this setting: dose: 12.5 mg/kg/injection, schedule: Q01DX009 (ip), vehicle: saline.
Setting [20] is: dose: 25.0 mg/kg/injection, schedule: Q01DX009 (ip), vehicle: saline.
Setting [21] is: dose: 60.0 mg/kg/injection, schedule: Q01DX005 (ip), vehicle: saline with Tween-80.
[22] abbreviates: dose: 120.0 mg/kg/injection, schedule: Q01DX005 (ip), vehicle: saline with Tween-80.

Toxic doses and inconclusive results are not listed.

The values below come from PubChem BioAssay AID330 (DTP/NCI, 2004).

Turning to `O=C(O)C(CSC(c1ccccc1)(c1ccccc1)c1ccccc1)NC(c1ccccc1)(c1ccccc1)c1ccccc1` (configuration not stated), the T/C is, setting by setting: under setting [1], 93 % of control; under setting [2], 94 % of control; under setting [3], 93 % of control; under setting [4], 98 % of control.

`COc1ccc(NC(=S)Nc2ccccn2)cc1`: the T/C reads like this: under setting [5], 108 % of control; under setting [6], 95 % of control; under setting [7], 112 % of control.

For `Cc1cc2ccccc2nc1C#N`, the T/C was 105 % of control (dose: 25.0 mg/kg/injection, schedule: Q01DX005 (ip), vehicle: Klucel (hydroxypropylcellulose) (HPC)); 102 % of control under setting [8]; 101 % of control under setting [9]; 109 % of control (dose: 200.0 mg/kg/injection, schedule: Q01DX005 (ip), vehicle: Klucel (hydroxypropylcellulose) (HPC)).

`C1=Cc2ccccc2C(c2ccccc2)S1` (configuration not stated): the T/C is 98 % of control under setting [10]; 88 % of control under setting [11]; 93 % of control under setting [12]; 89 % of control (dose: 400.0 mg/kg/injection, schedule: Q01DX009 (ip), vehicle: saline).

With `CCOC(=O)/C=C/C(=O)NNC(=O)OC(C)(C)C`, the T/C is 99 % of control under setting [1]; 93 % of control under setting [2]; 101 % of control under setting [3]; 119 % of control under setting [4]; 108 % of control (dose: 200.0 mg/kg/injection, schedule: Q01DX009 (ip), vehicle: other).

Take `NC(CSC(c1ccccc1)(c1ccccc1)c1ccccc1)C(=O)NCC(=O)O` (configuration not stated): the T/C (dose: 600.0 mg/kg/injection, schedule: Q01DX009 (ip), vehicle: saline with Tween-80) is 122 % of control.

For `NCCc1c[nH]c2ccc(OCc3ccccc3)cc12`, the T/C (dose: 50.0 mg/kg/injection, schedule: Q04DX003 (ip), vehicle: saline) is 109 % of control and the T/C (dose: 100.0 mg/kg/injection, schedule: Q04DX003 (ip), vehicle: saline) was 116 % of control.

Regarding `CS(=O)CCC(N)P(=O)(O)O` (configuration not stated), the T/C is, setting by setting: (dose: 50.0 mg/kg/injection, schedule: Q01DX005 (ip), vehicle: saline) 92 % of control; (dose: 100.0 mg/kg/injection, schedule: Q01DX005 (ip), vehicle: saline) 99 % of control; (dose: 200.0 mg/kg/injection, schedule: Q01DX005 (ip), vehicle: saline) 99 % of control.

Take `C=CCN=C([S-])Nc1cccc(C(=O)O)c1.[Au+].[Na+]`: the T/C was 106 % of control under setting [13], 106 % of control under setting [14] and 108 % of control under setting [15].

Turning to `CCC(O)C#C[Si](C)(C)C` (configuration not stated), the T/C runs as follows: under setting [13], 97 % of control; under setting [14], 100 % of control; under setting [15], 103 % of control.

Take `O=c1c2ccccc2nnn1O`: the T/C is, setting by setting: (dose: 100.0 mg/kg/injection, schedule: Q04DX003 (ip), vehicle: Klucel (hydroxypropylcellulose) (HPC)) 108 % of control; (dose: 200.0 mg/kg/injection, schedule: Q04DX003 (ip), vehicle: Klucel (hydroxypropylcellulose) (HPC)) 108 % of control.

With `CCC1=C(C(C)OCCO)C(=O)c2ccccc2C1=O` (configuration not stated), the T/C by setting is: under setting [16], 96 % of control; under setting [17], 100 % of control; under setting [18], 94 % of control.

As for `O=C1C=CC(=O)C2=C1C1c3ccccc3C2c2ccccc21`, the T/C under setting [8] was 101 % of control and the T/C under setting [9] was 110 % of control.

As for `C1CCC2(CC1)SSC1(CCCCC1)S2`, the T/C is 109 % of control (dose: 100.0 mg/kg/injection, schedule: Q04DX003 (ip), vehicle: other); 109 % of control (dose: 200.0 mg/kg/injection, schedule: Q04DX003 (ip), vehicle: other); 113 % of control (dose: 400.0 mg/kg/injection, schedule: Q04DX003 (ip), vehicle: other).

Regarding `CC(=O)Nc1ccc(S(=O)(=O)N/N=c2/sc3ccccc3n2C)cc1N`, the T/C is 96 % of control (dose: 6.25 mg/kg/injection, schedule: Q01DX009 (ip), vehicle: saline); 103 % of control under setting [19]; 100 % of control under setting [20]; 88 % of control under setting [11]; 92 % of control under setting [12].

Consider `O=C(O)Cc1csc(=S)n1-c1ccccc1`, for which the T/C under setting [16] was 97 % of control, the T/C under setting [17] was 102 % of control and the T/C under setting [18] was 90 % of control.

Turning to `O=C(/C=C/c1c(Cl)cccc1Cl)c1ccc(Cl)cc1`, the T/C runs as follows: under setting [5], 100 % of control; under setting [6], 100 % of control; under setting [7], 109 % of control.

For the compound `C=CCOc1cc2c(cc1C(C)(C)c1ccc(OC)cc1)OCO2`, the T/C is, setting by setting: under setting [21], 118 % of control; under setting [22], 117 % of control.

Take `CC1CC(N)=NC1C(=O)NCCC#N` (configuration not stated): the T/C by setting is: under setting [19], 97 % of control; under setting [20], 101 % of control; under setting [10], 98 % of control; under setting [11], 90 % of control.

For `COc1cccc2c1C(=O)c1c(O)c3c(c(O)c1C2=O)CC(O)(C(N)=O)CC3OC1CC(N)C(O)C(C)O1` (configuration not stated), the T/C runs as follows: (dose: 0.39 mg/kg/injection, schedule: Q01DX009 (ip), vehicle: water) 101 % of control; (dose: 6.25 mg/kg/injection, schedule: Q01DX009 (ip), vehicle: water) 151 % of control.

`CCOc1nc(C(=O)O)cc2sccc12`: the T/C (dose: 100.0 mg/kg/injection, schedule: Q01DX001 (ip), vehicle: Klucel (hydroxypropylcellulose) (HPC)) is 90 % of control; the T/C (dose: 200.0 mg/kg/injection, schedule: Q01DX001 (ip), vehicle: Klucel (hydroxypropylcellulose) (HPC)) was 93 % of control; the T/C (dose: 400.0 mg/kg/injection, schedule: Q01DX001 (ip), vehicle: Klucel (hydroxypropylcellulose) (HPC)) is 88 % of control.

For `Nc1nc(-c2ccc(F)cc2)cc(-c2cc(-c3ccc(F)cc3)nc(N)n2)n1`, the T/C by setting is: under setting [13], 100 % of control; under setting [14], 105 % of control; under setting [15], 102 % of control.

Take `CC(=O)OC(C)(C)/N=N/C(C)(C)OC(C)=O`: the T/C by setting is: (dose: 25.0 mg/kg/injection, schedule: Q01DX009 (ip), vehicle: saline with Tween-80) 103 % of control; (dose: 50.0 mg/kg/injection, schedule: Q01DX009 (ip), vehicle: saline with Tween-80) 101 % of control; (dose: 100.0 mg/kg/injection, schedule: Q01DX009 (ip), vehicle: saline with Tween-80) 111 % of control; (dose: 200.0 mg/kg/injection, schedule: Q01DX009 (ip), vehicle: saline with Tween-80) 100 % of control.

Consider `CCOc1ccc(NC(=O)c2c(C)nc(-c3ccccc3)nc2Nc2ccc(Cl)cc2)cc1`, for which the T/C reads like this: under setting [21], 90 % of control; under setting [22], 90 % of control; (dose: 240.0 mg/kg/injection, schedule: Q01DX005 (ip), vehicle: saline with Tween-80) 94 % of control.

As for `N=C(N)c1ccc(N=Nc2c(O)ccc3c2[nH]c2ccccc23)cc1`, the T/C reads like this: under setting [16], 101 % of control; under setting [17], 98 % of control; under setting [18], 106 % of control.

For the compound `CN(C)CCSC(=O)N1c2ccccc2C(C)(C)c2ccccc21`, the T/C under setting [10] is 102 % of control and the T/C under setting [11] is 103 % of control.

As to `C[C@@]12C[C@@H](Br)[C@H](Br)C[C@]1(C)O2`, the T/C was 104 % of control under setting [16], 106 % of control under setting [17] and 101 % of control under setting [18].

`O=C1C[N+]2(Cc3ccccc3)CCC1CC2`: the T/C by setting is: under setting [19], 101 % of control; under setting [20], 108 % of control; under setting [10], 90 % of control.

For `Nc1nc2ncc([N+](=O)[O-])cc2c(=O)[nH]1`, the T/C reads like this: under setting [16], 102 % of control; under setting [17], 100 % of control.
